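Five compound concentrations were applied to cells in 96-well plates for 48 hours; endpoints were derived by simple linear interpolation of the resulting dose-response curve. GI50 marks 50% less growth.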 Active and inactive are the calls of the source. No stated cut-off is given here; in the data, active = GI50 up to about 1.1 µM and inactive = higher.

The text below walks through data of ChEMBL document CHEMBL1201862, “PubChem BioAssay data set” (2004).

Test systems include A498; COLO 205; DLD-1; DMS-114; HCT-15; HOP-18; HT-29; KM12; M19-MEL; RPMI-8226; SF-295; SN12C; SNB-78; UO-31; EKVX; XF498.
Holding throughout (assay): NCI anticancer screen, dose series, 48 h

In the case of `COc1ccc2[nH]c3c(C)c4c(c(C)c3c2c1)CN(C)CC4`, the GI50 was 17.9 µM (inactive) in the experiment on A498; 17.4 µM (inactive) in the experiment on COLO 205; 22.6 µM (inactive) in the experiment with DLD-1; 18.6 µM (inactive) with DMS-114; 16.1 µM with HCT-15; 10.6 µM (inactive) in the experiment with HOP-18. Also, the GI50 was 6.47 µM (inactive) with HT-29; 13.9 µM (inactive) in the experiment with KM12; 17.3 µM (inactive) in the experiment with M19-MEL; 4.69 µM (inactive) with RPMI-8226; 18.8 µM (inactive) with SF-295; 16.3 µM (inactive) in the experiment with SN12C. The values for the GI50 in the experiment on SNB-78 and in the experiment on UO-31 were 25.3 µM (inactive) and 16.4 µM (inactive), respectively.

In the case of `CNCc1cc(OC)ccc1-c1ccc(OC)c(OC)c1OC`, the GI50 with A498 was > 100 µM (inactive); in the experiment with COLO 205 it was > 100 µM (inactive); in the experiment with DLD-1, > 100 µM (inactive); with DMS-114, 60.8 µM (inactive); in the experiment with EKVX, > 74.8 µM (inactive); with HCT-15 it was more than 100 µM. Also, the GI50 in the experiment with HOP-18 is > 32.5 µM (inactive); with HT-29 it was 82.6 µM (inactive); in the experiment with KM12, > 85.9 µM (inactive); in the experiment on M19-MEL, > 100 µM (inactive); in the experiment with RPMI-8226, > 100 µM (inactive); in the experiment with SF-295 it was 75 µM (inactive). For the same compound, the GI50 with SN12C was > 100 µM (inactive); with SNB-78, > 100 µM (inactive); in the experiment with UO-31, > 88.1 µM (inactive); with XF498, 85.3 µM (inactive).

Take `CC#CC#C/C=C1\C=CC2(OC=CC2O)O1` (stereo unspecified): the GI50 with COLO 205 is 3.28 µM (inactive); in the experiment with DLD-1 it was 8.93 µM (inactive); in the experiment on DMS-114, 7.38 µM (inactive); with EKVX it was > 9.86 µM (inactive); in the experiment with HCT-15, 7.4 µM; with HOP-18, 4.79 µM (inactive). Moreover, the GI50 with HT-29 is 7.91 µM (inactive); with KM12 it was 3.32 µM (inactive); in the experiment on M19-MEL, 15.3 µM (inactive); in the experiment with RPMI-8226, 13.4 µM (inactive); in the experiment on SF-295, > 23.3 µM (inactive); with SN12C, > 23.3 µM (inactive). The GI50 with SNB-78 is 4.93 µM (inactive); with UO-31, 12.2 µM (inactive); with XF498, 9.4 µM (inactive).

For `CCS(CC)(CC)CC1CCCC2=CCC(P(=O)(c3ccccc3)c3ccccc3)CC21` (stereo unspecified), the GI50 with A498 is 13.6 µM (inactive); in the experiment on COLO 205, 17 µM (inactive); in the experiment with DLD-1, 11.2 µM (inactive); with DMS-114, 8.81 µM (inactive); in the experiment on EKVX, 14.3 µM (inactive); in the experiment with HCT-15, 8.26 µM. In addition, the GI50 is 23.8 µM (inactive) in the experiment with HOP-18; 9.12 µM (inactive) in the experiment with HT-29; 11.4 µM (inactive) in the experiment with KM12; 17.9 µM (inactive) with M19-MEL; 3.81 µM (inactive) with SF-295; 11.9 µM (inactive) in the experiment on SN12C. Further, the GI50 with SNB-78 is 15.4 µM (inactive); in the experiment with UO-31, 6.32 µM (inactive); in the experiment with XF498, 5.81 µM (inactive).

For the compound `O=C1OC(c2ccccc2)=N/C1=C/NC(CO)C(=O)O` (stereo unspecified), the GI50 with A498 was > 100 µM (inactive); in the experiment on COLO 205, > 100 µM (inactive); with DLD-1, > 100 µM (inactive); in the experiment on DMS-114 it was > 100 µM (inactive); with EKVX, > 100 µM (inactive); in the experiment on HCT-15 it was more than 100 µM. In addition, the GI50 is 45.6 µM (inactive) in the experiment on HOP-18; > 100 µM (inactive) with HT-29; > 100 µM (inactive) with KM12; > 100 µM (inactive) with M19-MEL; > 100 µM (inactive) in the experiment on RPMI-8226; > 100 µM (inactive) with SF-295. Further, the GI50 in the experiment with SNB-78, with UO-31 and with XF498 was > 100 µM (inactive) each time.

Consider `Oc1ccc([Te]CCNCC[Te]c2ccc(O)cc2)cc1`, for which the GI50 with A498 was 13.4 µM (inactive); in the experiment on COLO 205, 7.13 µM (inactive); in the experiment with DLD-1, 23 µM (inactive); with EKVX, 3.56 µM (inactive); in the experiment with HOP-18, 26.4 µM (inactive); with HT-29, 15.6 µM (inactive). The GI50 in the experiment with KM12 was 15 µM (inactive); with M19-MEL, 7.29 µM (inactive); in the experiment with RPMI-8226 it was 16.4 µM (inactive); in the experiment with SF-295 it was 4.32 µM (inactive); in the experiment on SN12C, 9.82 µM (inactive); with SNB-78 it was 22 µM (inactive). Also, the GI50 in the experiment on UO-31 is 9.2 µM (inactive); in the experiment on XF498, 5.11 µM (inactive).

In the case of `CC1=Nc2ccccc2C1C(Cc1ccccc1N)c1c(C)[nH]c2ccccc12` (stereo unspecified), the GI50 was 16 µM (inactive) with A498; 16.6 µM (inactive) in the experiment with COLO 205; 18.2 µM (inactive) in the experiment with DLD-1; 19.2 µM (inactive) in the experiment with DMS-114; 20.5 µM (inactive) in the experiment on EKVX; 16.4 µM in the experiment with HCT-15. Besides, the GI50 with HOP-18 is 12.4 µM (inactive); with HT-29 it was 17.8 µM (inactive); in the experiment with KM12, 16.6 µM (inactive); with M19-MEL, 17.4 µM (inactive); in the experiment on RPMI-8226, 18.5 µM (inactive); in the experiment with SF-295 it was 12.6 µM (inactive). Further, the GI50 is 18.7 µM (inactive) in the experiment with SN12C, 14.7 µM (inactive) in the experiment with UO-31 and 18.5 µM (inactive) with XF498.

Take `CCc1cccc(C(C)C)c1NC(=O)C(=O)C(Cc1nc2ccccc2nc1O)C(=O)OC` (stereo unspecified): the GI50 is > 100 µM (inactive) with A498; 43.8 µM (inactive) in the experiment with COLO 205; > 100 µM (inactive) in the experiment on DLD-1; 14.3 µM (inactive) with DMS-114; 5.19 µM (inactive) in the experiment on EKVX; more than 100 µM in the experiment on HCT-15. Further, the GI50 was > 100 µM (inactive) in the experiment on HOP-18; 95.3 µM (inactive) in the experiment on HT-29; > 100 µM (inactive) with KM12; > 100 µM (inactive) in the experiment on M19-MEL; 39.2 µM (inactive) with RPMI-8226; > 100 µM (inactive) with SF-295. Also, the GI50 in the experiment with SN12C, in the experiment on UO-31 and in the experiment with XF498 was > 100 µM (inactive) in each case.

For `O=[N+]([O-])c1ccc(C[P+](c2ccccc2)(c2ccccc2)c2ccccc2)cc1`, the GI50 in the experiment on A498 is > 100 µM (inactive); in the experiment on COLO 205, 25.4 µM (inactive); in the experiment on DLD-1, 50.4 µM (inactive); in the experiment with DMS-114, 23.2 µM (inactive); in the experiment with EKVX, > 100 µM (inactive); in the experiment with HCT-15, 81.5 µM. For the same compound, the GI50 was 79.8 µM (inactive) in the experiment on HOP-18; 32.9 µM (inactive) in the experiment on HT-29; 52.5 µM (inactive) in the experiment on KM12; 24.2 µM (inactive) in the experiment on M19-MEL; 26.2 µM (inactive) with RPMI-8226; > 100 µM (inactive) with SF-295. Also, the values for the GI50 in the experiment on SN12C, with UO-31 and in the experiment on XF498 were > 100 µM (inactive), > 100 µM (inactive) and < 0.01 µM (active), respectively.

`O=C1c2ccccc2C(=O)c2c(O)c(NCCNCCO)cc(O)c21`: the GI50 in the experiment on A498 is 7.26 µM (inactive); with DLD-1, 3.13 µM (inactive); in the experiment with DMS-114, 4.19 µM (inactive); with EKVX it was 2.47 µM (inactive); in the experiment on HCT-15, 3.64 µM; in the experiment on HOP-18, 6.49 µM (inactive). In addition, the GI50 in the experiment on HT-29 was 3.23 µM (inactive); in the experiment with KM12, 3.72 µM (inactive); in the experiment with M19-MEL, 3.62 µM (inactive); in the experiment on RPMI-8226, 3.88 µM (inactive); in the experiment with SF-295 it was 10.2 µM (inactive); in the experiment on SN12C, 3.99 µM (inactive). Also, the GI50 in the experiment with SNB-78 was 5.21 µM (inactive); in the experiment with UO-31 it was 2.96 µM (inactive); in the experiment on XF498 it was 6.95 µM (inactive).

With `CC(=O)O/N=C(/C)c1ccccc1O`, the GI50 with COLO 205, with DLD-1, in the experiment on DMS-114, in the experiment on EKVX, with HOP-18 and in the experiment on HT-29 was > 100 µM (inactive) each time. The GI50 in the experiment on KM12, in the experiment with M19-MEL, in the experiment with RPMI-8226, in the experiment on SF-295, in the experiment on SN12C and with SNB-78 was > 100 µM (inactive) throughout. In addition, the GI50 in the experiment on UO-31 and in the experiment with XF498 was > 100 µM (inactive) throughout.

Regarding `COc1ccc2[nH]c3c(c2c1)CCN(C)CC3`, the GI50 in the experiment on A498 is > 100 µM (inactive); in the experiment with COLO 205, > 100 µM (inactive); in the experiment on DLD-1, > 100 µM (inactive); with EKVX, > 100 µM (inactive); in the experiment with HCT-15, more than 100 µM; in the experiment with HOP-18 it was > 100 µM (inactive). For the same compound, the GI50 is > 100 µM (inactive) with HT-29; > 100 µM (inactive) with KM12; 57.4 µM (inactive) in the experiment on M19-MEL; > 100 µM (inactive) in the experiment on RPMI-8226; > 100 µM (inactive) in the experiment with SF-295; > 100 µM (inactive) in the experiment with SNB-78. Moreover, the GI50 with XF498 is > 100 µM (inactive).

For `C=CC[C@H](C[C@H](C[C@H](C[C@H](C[C@H](C[C@H](C[C@H](C[C@H](C[C@H](C[C@H](CCCCC)OC)OC)OC)OC)OC)OC)OC)OC)OC)OC`, the GI50 in the experiment with A498 is 85.7 µM (inactive); in the experiment with COLO 205, > 100 µM (inactive); in the experiment with DLD-1, > 100 µM (inactive); in the experiment with DMS-114 it was 52.6 µM (inactive); in the experiment with EKVX, > 100 µM (inactive); in the experiment on HOP-18, > 100 µM (inactive). The GI50 in the experiment with HT-29 was > 100 µM (inactive); in the experiment with KM12, > 100 µM (inactive); in the experiment on M19-MEL, > 100 µM (inactive); in the experiment on RPMI-8226, 52.4 µM (inactive); in the experiment on SF-295, > 100 µM (inactive); in the experiment on SN12C, > 100 µM (inactive). Moreover, the GI50 in the experiment with SNB-78 is > 100 µM (inactive); in the experiment on UO-31 it was 50.7 µM (inactive); in the experiment on XF498 it was 41.6 µM (inactive).

`Cc1ccc(-n2c3nc(=O)n(C)c(=O)c-3nc3ccccc32)cc1`: the GI50 in the experiment on A498 is 26.7 µM (inactive); with COLO 205 it was 4.47 µM (inactive); in the experiment on DLD-1, 27.6 µM (inactive); with DMS-114, 13.7 µM (inactive); with EKVX, 12.9 µM (inactive); with HCT-15 it was 8.18 µM. Further, the GI50 in the experiment on HOP-18 was 14.7 µM (inactive); in the experiment with HT-29 it was 3.54 µM (inactive); in the experiment on KM12, 17.3 µM (inactive); in the experiment with RPMI-8226, 12.5 µM (inactive); in the experiment with SF-295, 11.2 µM (inactive); with SN12C, 11.5 µM (inactive). In addition, the results for the GI50 in the experiment on SNB-78, with UO-31 and in the experiment with XF498 were 30.5 µM (inactive), 40.2 µM (inactive) and 25.4 µM (inactive), respectively.
